The record followed here is paper PMC9312238, “Novel Organoselenium Redox Modulators with Potential Anticancer, Antimicrobial, and Antioxidant Activities” (Antioxidants, 2022).

One data set deals with Candida albicans. Put plainly: microbe, parasite or virus in culture. Details: C. albicans A% (activity index): concentration or dose not given beside the values. To be noted: for C. albicans A% (activity index): zone of test compound / zone of standard (clotrimazole) x 100; for zone of inhibition at 20 µM: Candida albicans, read-out: C. albicans IZD (mm). The data set is classed as cell-based. Here is the method: (§1) The antimicrobial activities of the OSe compounds were evaluated against C. albicans yeast, as well as E. coli and S. bacteria, employing the agar well diffusion assay. Furthermore, the MICs (in µM) were determined by the microdilution method according to the reported protocol. More details are in the Supporting Information.
(§2) Compounds were evaluated for their antimicrobial activity against the Gram-negative bacteria Escherichia coli (E. coli) and the Gram-positive bacteria Staphylococcus aureus (S. aureus), as well as the Candida albicans (C. albicans) fungal strain, using the agar diffusion assay. Ampicillin and clotrimazole were used as standards. Indeed, the antimicrobial properties of the OSe compounds were also obtained from the activity index percentage (A%) according to Equation (2). (2) A%=Zone of inhibition by test compound diametre/Zone of inhibition by standard diametre×100 . […]
(§3) 1.1.1. The antimicrobial activity
The antimicrobial activities of the OSe compounds were evaluated against C. albicans yeast as well as E. coli gram-negative and S. aureus gram-positive bacteria employing the agar well diffusion assay. […]
compound by dissolving in DMSO. […]
Petri dishes, which in turn contain a nutrient media (agar 20 g, peptone 5 g, and beef extract 3 g) seeded with the dedicated strain. Incubation lasted for 24 h at 36
(§4) Furthermore, the MICs (in µM) were determined by the microdilution method according to the reported protocol. […]
(§5) Inhibition%= (Ablank-Asample)/(Ablank)*100. (1)

For data set [1], the system named is Staphylococcus aureus. Kind of data set: Agar diffusion assay, S. aureus. The class given is cell-based. Details: S. aureus A% (activity index): concentration or dose not given beside the values. The settings on record: for S. aureus A% (activity index): zone of test compound / zone of standard (ampicillin) x 100; for zone of inhibition at 20 µM: Staphylococcus aureus, read-out: S. aureus IZD (mm). The procedure: as §1, §2, §3
(§6) The antimicrobial activities of the OSe compounds were evaluated against C. albicans yeast as well as E. coli gram-negative and S. aureus gram-positive bacteria employing the agar well diffusion assay. Briefly, a concentration of 1 mM was prepared for each compound by dissolving in DMSO. Paper discs of standard size […] were steri-lized in an autoclave and soaked in 20 µL of the test compounds, and placed in the Petri dishes, which in turn contain a nutrient media (agar 20 g, peptone 5 g, and beef extract 3 g) seeded with the dedicated strain. Incubation lasted for 24 h at 36
as §4, §5
A general note: Agar diffusion results depend on both activity and mobility in agar.

A further data set deals with HepG2 cells. Kind of data set: cells. The data set is classed as cell-based, human. The settings on record: for IC50: MTT, 24 h incubation, HepG2 cells, read-out: HepG2 IC50; for HepG2 TI (IC50 WI-38 / IC50 HepG2): therapeutic index, ratio of WI-38 IC50 to HepG2 IC50. The procedure:
Cells were obtained from the ATCC Company (VACSERA), Cairo, Egypt. MTT assay were performed according to the literature method. More details are in the Supporting Information.
Recently, OSe compounds gained much attention as possible drug candidates due to their various pharmacological properties. Our group has reported several OSe candidates with potential anticancer, antimicrobial, and antioxidant activities. Therefore, the anticancer attributes of the newly prepared OSe compounds were estimated using the MTT assay against MCF-7 and HepG2 and compared with their respective cytotoxicity in WI-38 primary cells. The anthracycline drug doxorubicin was used as the standard. The minimal inhibition concentration required to kill 50% of the cells (IC50) was calculated from dose-response curves presented in Table 1. Moreover, the therapeutic index (TI) was also calculated (according to Equation (1)), which is considered a measure of the selectivity and safety of the synthesized compounds. (1) TI=IC50 for the normal WI38 cells/IC50 for the cancer cells […]
1.1. The biological assays
1.1.1. The anticancer activity
The breast adenocarcinoma (MCF-7), Hepatocellular carcinoma (HEPG-2), and nor-mal fibroblast (WI-38) cells were obtained from ATCC via Holding company for biological products and vaccines (VACSERA), Cairo, Egypt. The reagents RPMI-1640 medium, MTT, DMSO, and fetal bovine serum was obtained from Sigma Aldrich. Dulbecco’s modified Eagle’s medium was used as the culture medium for the cells, and the cytotoxicity was evaluated using the reported MTT assay. Doxorubicin was used as the positive reference, and the IC50 values were obtained from the corresponding dose-response curve.
This colorimetric assay is based on converting the yellow tetrazolium bromide (MTT) to a purple formazan derivative by mitochondrial succinate dehydrogenase in viable cells.
Cell lines were cultured in RPMI-1640 medium with 10% fetal bovine serum. Antibiotics added were 100 units/ml penicillin and 100µg/ml streptomycin at 37 C in a 5% Co2 incu-bator. The cell lines were seeded in a 96-well plate at a density of 1.0x10^4 cells/well. at 37 C for 48 h under 5% Co2. After incubation, the cells were treated with different concentra-tions of compounds and incubated for 24 h. After 24 h of drug treatment, 20 µl of MTT solution at 5mg/ml was added and incubated for 4 h. Finally, dimethyl sulfoxide (DMSO) in the volume of 100 µl is added to each well to dissolve the purple formazan formed. The colorimetric assay is measured and recorded at an absorbance of 570 nm using a plate reader (EXL 800, USA). The percentage of the relative cell viability was calculated as (A570 of treated samples/A570 of the untreated sample) X 100. […]
as §5

For data set [2], the system named is Staphylococcus aureus. Kind of data set: MIC by microdilution, S. aureus. The data set is classed as cell-based. The procedure:
The antimicrobial activities of the OSe compounds were evaluated against C. albicans yeast, as well as E. coli and S. bacteria, employing the agar well diffusion assay. Furthermore, the MICs (in µM) were determined by the microdilution method according to the reported protocol. More details are in the Supporting Information. […]
as §3, §6, §4, §5

The mark [3] stands for this setting: inhibition zone diameter, six-mm disks soaked with 20 μM of compound.

≈ marks a conversion by molar mass, not a printed value. Read-outs that look alike come from different tables or passages of the source.

As a reminder, the IC50 is the point on the concentration scale where inhibition reaches its midpoint. Take “2-((4-(2-(3-hydroxynaphthalen-1(4H)-ylidene)hydrazinyl)phenyl)selanyl)-N-phenylacetamide [Compound 9]”: the “C. albicans IZD (mm)” value in the data set with Candida albicans (setting [3]) stood at 21 mm. Besides, in the data set with Candida albicans, the “C. albicans A% (activity index)” value is given as 88%. In addition, in the data set on Staphylococcus aureus [1] (setting [3]), the “S. aureus IZD (mm)” value is recorded as 19 mm. For the same molecule, in the data set on Staphylococcus aureus [1], the “S. aureus A% (activity index)” value is given as 91%. Further, in the data set with HepG2 cells, the half-inhibitory concentration (IC50) was 7.48 ± 0.6 µM and the “HepG2 TI (IC50 WI-38 / IC50 HepG2)” value is 5.3. In the data set with Staphylococcus aureus [2] (microdilution), the “MIC (μM) S. aureus” value is 1 µM.
For orientation: melting point means the temperature, or range, at which the solid turns liquid. On to `Nc1ccc([Se]CC(=O)Nc2ccccc2)cc1` [Compound 4, 2-((4-aminophenyl)selanyl)-N-phenylacetamide], for which the melting point lay in the range of 121 to 122 °C. Besides, in the data set on Candida albicans (setting [3]), the zone of inhibition at 20 µM stood at 13 mm. In the data set with Candida albicans, the “C. albicans A% (activity index)” value worked out at 54%. Also, in the data set on Staphylococcus aureus [1] (setting [3]), the zone of inhibition at 20 µM is 15 mm. The “S. aureus A% (activity index)” value with Staphylococcus aureus [1] amounted to 71%. Besides, in the data set on HepG2 cells (Homo sapiens), the IC50 came to 18.3 ± 1.3 µM. In the data set with HepG2 cells, the “HepG2 TI (IC50 WI-38 / IC50 HepG2)” value worked out at 2.9.
`CCOc1ccc(NC(=O)C[Se]c2ccc(N)cc2)cc1` [Compound 5, 2-((4-aminophenyl)selanyl)-N-(4-ethoxyphenyl)acetamide] came in with a melting point of 136 to 137 °C. The zone of inhibition at 20 µM in the data set with Candida albicans (setting [3]) worked out at 8 mm. Further, the “C. albicans A% (activity index)” value with Candida albicans is recorded as 33%. In the data set with Staphylococcus aureus [1] (setting [3]), the zone of inhibition at 20 µM was found to be 12 mm. Besides, the “S. aureus A% (activity index)” value in the data set on Staphylococcus aureus [1] worked out at 57%. Further, the IC50 in the data set on HepG2 cells (Homo sapiens) is over 100 µM.
For orientation: MIC means the lowest concentration that inhibits growth of the organism. In the case of `Nc1ccc([Se]CC(=O)N[C@@H](Cc2c[nH]c3ccccc23)C(=O)O)cc1` [Compound 6, (2-((4-aminophenyl)selanyl)acetyl)tryptophan], the melting point lay in the range of 154 to 156 °C. For the same molecule, the zone of inhibition at 20 µM in the data set with Candida albicans (setting [3]) worked out at 20 mm. The “C. albicans A% (activity index)” value with Candida albicans is on record as 83%. Also, the zone of inhibition at 20 µM in the data set with Staphylococcus aureus [1] (setting [3]) is 18 mm. In addition, the “S. aureus A% (activity index)” value in the data set on Staphylococcus aureus [1] is 86%. Further, the IC50 with HepG2 cells (Homo sapiens) was found to be 8.86 ± 0.7 µM. In addition, in the data set on HepG2 cells, the “HepG2 TI (IC50 WI-38 / IC50 HepG2)” value was 3.2. Also, in the data set with Staphylococcus aureus [2] (Staphylococcus aureus, read-out: MIC (μM) S. aureus), the MIC is 2 µM (≈ 0.833 µg/mL).
In turn, `O=C(O)CCC(=O)Nc1ccc([Se]CC(=O)Nc2ccccc2)cc1` [Compound 11, 4-oxo-4-((4-((2-oxo-2-(phenylamino)ethyl)selanyl)phenyl)amino)butanoic acid] returned a melting point of 163 to 165 °C. The zone of inhibition at 20 µM with Candida albicans (setting [3]) came to 13 mm. Also, the “C. albicans A% (activity index)” value in the data set with Candida albicans is reported as 54%. For the same molecule, the zone of inhibition at 20 µM with Staphylococcus aureus [1] (setting [3]) amounted to 13 mm. Moreover, the “S. aureus A% (activity index)” value in the data set with Staphylococcus aureus [1] is 62%. Also, in the data set on HepG2 cells (Homo sapiens), the concentration for half-maximal inhibition (IC50) amounted to 26.7 ± 1.9 µM. Also, the “HepG2 TI (IC50 WI-38 / IC50 HepG2)” value with HepG2 cells was found to be 2.5.
`O=C(C[Se]c1ccc(N2C(=O)CCC2=O)cc1)Nc1ccccc1` [Compound 14, 2-((4-(2,5-dioxopyrrolidin-1-yl)phenyl)selanyl)-N-phenylacetamide] registered a melting point of 159 to 161 °C. In the data set on Candida albicans (setting [3]), the zone of inhibition at 20 µM was determined as 15 mm. Besides, the “C. albicans A% (activity index)” value in the data set on Candida albicans is 63%. Also, in the data set on Staphylococcus aureus [1] (setting [3]), the zone of inhibition at 20 µM came out at 14 mm. In the data set on Staphylococcus aureus [1], the “S. aureus A% (activity index)” value was found to be 67%. Also, the IC50 in the data set with HepG2 cells (Homo sapiens) came out at 12.6 ± 1 µM. Besides, the “HepG2 TI (IC50 WI-38 / IC50 HepG2)” value with HepG2 cells came to 5.
For `C[Se]c1ccc(NC(=O)C=CC(=O)O)cc1` [Compound 15, 4-((4-(methylselanyl)phenyl)amino)-4-oxobut-2-enoic acid], the melting point is 171 °C. In addition, the zone of inhibition at 20 µM in the data set on Candida albicans (setting [3]) was determined as 16 mm. Moreover, in the data set with Candida albicans, the “C. albicans A% (activity index)” value is 67%. Also, in the data set with Staphylococcus aureus [1] (setting [3]), the zone of inhibition at 20 µM was 15 mm. The “S. aureus A% (activity index)” value in the data set on Staphylococcus aureus [1] is reported as 71%. The IC50 with HepG2 cells (Homo sapiens) was determined as 9.94 ± 0.8 µM. Besides, in the data set with HepG2 cells, the “HepG2 TI (IC50 WI-38 / IC50 HepG2)” value turned out to be 2.
Molecule `C[Se]c1ccc(NC(=O)CCC(=O)O)cc1` [Compound 16, 4-((4-(methylselanyl)phenyl)amino)-4-oxobutanoic acid] returned a melting point of 169.6 °C. The zone of inhibition at 20 µM in the data set with Candida albicans (setting [3]) is 12 mm. The “C. albicans A% (activity index)” value with Candida albicans came to 50%. Moreover, the “S. aureus A% (activity index)” value with Staphylococcus aureus [1] is 43%. In the data set with HepG2 cells (Homo sapiens), the half-inhibitory concentration (IC50) worked out at 32.6 ± 2.3 µM. The “HepG2 TI (IC50 WI-38 / IC50 HepG2)” value in the data set on HepG2 cells was 0.7.
